Results published in US12653899B2, “Multi-targeted, tunable, sustained delivery of payloads to charged avascular tissues” (Massachusetts Institute of Technology, priority 2019, dated 2026).

Test system: human ankle cartilage explants treated with IL-1β
Assay: IL-1β cytokine challenge model, sGAG biosynthesis rate in human ankle cartilage explants
Type: cell-based
Conditions: for rescue of the biosynthesis loss caused by human IL-1β: days 6-8
Method: Cartilage was harvested from the ankles of a donor (Collins Grade 1) and a donor (Collins Grade 1). Cartilage explants were equilibrated in culture media for 2 days after harvest. […] These were cut down to 1 mm thickness and allowed to equilibrate for a further 2 days before experiments were set up. Human IL-1β was used to induce osteoarthritis-like changes in cartilage. Experiments were set up to identify IL-1β doses at which 40 nM of free IGF-1 can rescue the IL-1β induced biosynthesis loss in cartilage. A dose response experiment in which single doses of (+9GFP)-(GGGGS)4-(IGF-1) (SEQ ID NO: 7) and (+9GFP)-(EAAAK)3-(IGF-1) (SEQ ID NO: 8) were added along with 100 pg/ml human IL-1β was also set up.
Experimental groups (N=8 to 10 cartilage explants in each group): Untreated control (Ctrl in FIG. 6A and FIG. 6B), 10 pg/mL human IL-1β (10 pg/ml IL-1b in FIG. 6A and FIG. 6B), 10 pg/mL human IL-1β+40 nM IGF-1 (10 pg/ml IL-1b+40 nM IGF-1 in FIG. 6A and FIG. 6B), 100 pg/mL human IL-1β (100 pg/ml IL-1b in FIG. 6A and FIG. 6B), 100 pg/mL human IL-1β+40 nM IGF-1 (100 pg/ml IL-1b+40 nM IGF-1 in FIG. 6A and FIG. 6B), 500 pg/mL human IL-1β (500 pg/ml IL-1b in FIG. 6A and […]), 500 pg/mL human IL-1β+40 nM IGF-1 (500 pg/ml IL-1b+40 nM IGF-1 in FIG. 6A and FIG. 6B), 1000 pg/mL human IL-1β (1 ng/ml IL-1b in FIG. 6A and FIG. 6B), 1000 pg/mL human IL-1β+40 nM IGF-1 (1 ng/ml IL-1b+40 nM IGF-1 in FIG. 6A and FIG. 6B). Media changes were performed every 2 days and the experiment was terminated after 8 days.
Chondrocyte biosynthesis rate (primarily aggrecan synthesis) was measured between days 6 and 8 of the experiment using a 35S-sulfate radiolabel. Statistics: 1-way ANOVA with post-hoc Tukey's HSD test.
This experiment was set up with cartilage explants from the donor ankle. Experimental groups (N=8 to 10 cartilage explants in each group): Untreated control (Ctrl in FIG. 6C), Continuous human IL-1β control (100 pg/ml dose added with every media change) (IL-1b in FIG. 6C), Continuous human IL-1β+continuous free IGF-1 control (100 pg/ml human IL-1β and 40 nM free IGF-1 dose added with every media change) (IL-1b+IGF1 FIG. 6C), Continuous human IL-1β+(+9GFP)-(GGGGS)4-(IGF-1) (SEQ ID NO: 7) 500 nM single dose (100 pg/ml human IL-1β added with every media change; Single 500 nM fusion protein dose added on Day 0) (IL-1b+0.5 μM Flex-1 in FIG. 6C), Continuous human IL-1β+(+9GFP)-(GGGGS)4-(IGF-1) (SEQ ID NO: 7) 1 μM single dose (100 pg/ml human IL-1β added with every media change; Single 1 μM fusion protein dose added on Day 0) (IL-1b+1 μM Flex-1 in FIG. 6C), Continuous human IL-1β+(+9GFP)-(EAAAK)3-(IGF-1) (SEQ ID NO: 8) 500 nM single dose (100 pg/ml human IL-1β added with every media change; Single 500 nM fusion protein dose added on Day 0), Continuous human IL-1β+(+9GFP)-(EAAAK)3-(IGF-1) (SEQ ID NO: 8) 1 μM single dose (100 pg/ml human IL-1β added with every media change; Single 1 μM fusion protein dose added on Day 0) (IL-1b+1 μM Rig-1 in FIG. 6C).
Preliminary dose response experiments were performed to test the effects of human IL-1β (PeproTech, Rocky Hill, NJ) on human ankle cartilage. Ankle cartilage explants from two different donors (equilibrated in culture medium post-harvest) were cultured in serum-free low glucose medium (same composition as equilibration medium) and treated with continuous IL-1β doses ranging from 10 pg/ml to 1 ng/ml for 8 days. The experiments also included groups of explants that were treated with 300 ng/ml free IGF-1 at each dose level of IL-1β. Based on the results of these experiments, 100 pg/ml IL-1β was chosen as the dose used for the fusion protein dose response experiments. In these experiments, ankle and knee cartilage explants (equilibrated in culture medium post-harvest) were treated continuously with IL-1β and received single doses of fusion proteins (ranging from 39.2 nM to 2 μM) at the start of the experiments. […]

[1] = single 2 μM dose, 100 pg/ml IL-1β, 10-day experiment (FIG. 15B)

| Substance | rescue of the loss of biosynthesis caused by IL-1β (single 1 μM dose, 100 pg/ml IL-1β, 10-day experiment (FIG. 15B)) | rescue of the loss of biosynthesis caused by IL-1β (single 2 μM dose, 100 pg/ml IL-1β, 7-day experiment (FIG. 15A)) | rescue of the loss of biosynthesis caused by IL-1β [1] | rescue of the biosynthesis loss caused by human IL-1β (40 nM free IGF-1, 100 pg/ml human IL-1β) | rescue of the biosynthesis loss caused by human IL-1β (40 nM free IGF-1, 500 pg/ml and 1000 pg/ml human IL-1β) | biosynthesis rate versus untreated control (300 ng/ml IGF-1 + 10 pg/ml human IL-1β, both donors) | biosynthesis rate versus untreated control (300 ng/ml IGF-1 + 100 pg/ml human IL-1β, both donors) | biosynthesis rate versus untreated control (300 ng/ml IGF-1 + 500 pg/ml or 1 ng/ml human IL-1β, donor) | rescue of biosynthesis loss (continuous free IGF-1 300 ng/ml, 100 pg/ml IL-1β, 7-day and 10-day experiments) | rescue of biosynthesis loss (continuous free IGF-1, human IL-1β 1 ng/ml) | rescue of the biosynthesis loss caused by human IL-1β (both dose levels (single 500 nM and 1 μM), 100 pg/ml human IL-1β, donor) | rescue of the loss of biosynthesis caused by IL-1β (single 1 μM dose, 100 pg/ml IL-1β, 7-day experiment (FIG. 15A)) |
| --- | --- | --- | --- | --- | --- | --- | --- | --- | --- | --- | --- | --- |
| (+9GFP)-(GGGGS)4-(IGF-1): fusion protein of +9 GFP and human IGF-1 with flexible (GGGGS)4 linker, SEQ ID NO: 7 | partially rescued | completely rescue | partially rescued |  |  |  |  |  |  |  |  |  |
| IGF-1: free recombinant human IGF-1 (PeproTech), pro-anabolic growth factor used as the positive control |  |  |  | completely rescue | partial rescue | surpassed the untreated control biosynthesis | not statistically significantly different from the untreated control | significantly lower biosynthesis compared to the untreated control | complete rescue | could not rescue |  |  |
| (+9GFP)-(EAAAK)3-(IGF-1): fusion protein of +9 GFP and human IGF-1 with rigid (EAAAK)3 linker, SEQ ID NO: 8 |  |  | partially rescued |  |  |  |  |  |  |  | able to rescue | partial rescue |
